The values that follow are results of earlier work, collected in US11633460B2, “Injectable solution at pH 7 comprising at least one basal insulin wherein the pI is comprised from 5.8 to 8.5 and a co-polyamino acid bearing carboxylate charges and hydrophobic radicals” (ADOCIA, priority 2017, dated 2023).

The conditions of the data set: patients, background statement.

With insulin glargine, the “Period over which the hypoglycemic effect is quasi-constant” value is 24 h.
